Laboratory results taken from ChEMBL document CHEMBL1133708, “A new class of conformationally rigid analogues of 4-amino-5-halopentanoic acids, potent inactivators of gamma-aminobutyric acid aminotransferase” (J Med Chem, 2000).

How the values were obtained:
[1] = biological target: T1, 4-aminobutyrate aminotransferase, mitochondrial (Sus scrofa, UniProt P80147); assay: Compound was evaluated for the competitive inhibition of Gamma-amino-N-butyrate transaminase
[2] = biological target: 4-aminobutyrate aminotransferase, mitochondrial (Sus scrofa) (UniProt P80147); assay: Compound was evaluated for the kinetic constant for the inhibition of Gamma-amino-N-butyrate transaminase; NA means no inactivation
[3] = biological target: T1, 4-aminobutyrate aminotransferase, mitochondrial; assay: Compound was evaluated for the kinetic constant for the inhibition of Gamma-amino-N-butyrate transaminase
[4] = biological target: 4-aminobutyrate aminotransferase, mitochondrial (Sus scrofa) (UniProt P80147); assay: Compound was evaluated for the kinetic constant for the inactivation of Gamma-amino-N-butyrate transaminase
[5] = Selectivity ratio of Kinact/KI

T1 sequence (P80147 whole entry): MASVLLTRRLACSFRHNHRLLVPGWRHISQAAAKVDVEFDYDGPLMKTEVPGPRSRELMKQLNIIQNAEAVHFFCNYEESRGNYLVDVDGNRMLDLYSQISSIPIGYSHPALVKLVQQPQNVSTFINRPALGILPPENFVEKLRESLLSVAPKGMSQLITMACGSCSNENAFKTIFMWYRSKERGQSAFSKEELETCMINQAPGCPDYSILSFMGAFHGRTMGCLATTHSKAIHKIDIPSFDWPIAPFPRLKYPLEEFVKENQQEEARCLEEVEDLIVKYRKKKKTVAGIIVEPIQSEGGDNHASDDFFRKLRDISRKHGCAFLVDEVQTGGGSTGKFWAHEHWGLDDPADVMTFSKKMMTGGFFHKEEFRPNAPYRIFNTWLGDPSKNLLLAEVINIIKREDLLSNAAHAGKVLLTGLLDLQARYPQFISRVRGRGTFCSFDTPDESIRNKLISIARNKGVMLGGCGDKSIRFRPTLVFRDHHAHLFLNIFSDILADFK
Chain of 4-aminobutyrate aminotransferase, mitochondrial (Sus scrofa) (P80147 whole entry): as above

N[C@@H]1CC[C@H](C(=O)O)[C@H]1Br
Ki [1]: 12 mM
NA [2]: No inactivation

N[C@H]1[C@H](Br)[C@@H](C(=O)O)C[C@@H]1F
Ki [1]: 4.7 mM
NA [2]: No inactivation

NC(CF)CCC(=O)O (configuration not stated)
Ki [3]: 0.4 mM
kinact [4]: 0.5 min⁻¹

N[C@H]1C[C@@H](C(=O)O)CC1(F)F
NA [2]: No inactivation

N[C@H]1[C@H](Br)[C@@H](C(=O)O)C[C@@H]1O
Ki [1]: 13 mM
NA [2]: No inactivation

N[C@H]1C[C@@H](C(=O)O)C[C@@H]1F
Ki [1]: 0.012 mM
K inact/Ki [5]: 1.17 M⁻¹ s⁻¹
Ki [3]: 0.43 mM
kinact [4]: 0.03 min⁻¹

N[C@H]1[C@H](Br)[C@@H](C(=O)O)C[C@@H]1Br
Ki [1]: 4.2 mM
K inact/Ki [5]: 0.0617 M⁻¹ s⁻¹
Ki [3]: 49 mM
kinact [4]: 0.18 min⁻¹

N[C@H]1[C@@H](F)[C@@H](C(=O)O)C[C@@H]1Br
Ki [1]: 1.6 mM
K inact/Ki [5]: 0.122 M⁻¹ s⁻¹
Ki [3]: 3.14 mM
kinact [4]: 0.023 min⁻¹

N[C@H]1[C@H](O)[C@@H](C(=O)O)C[C@@H]1Br
Ki [1]: 5.9 mM
NA [2]: No inactivation

N[C@H]1C[C@@H](C(=O)O)C[C@@H]1Br
Ki [1]: 3.6 mM
K inact/Ki [5]: 0.0217 M⁻¹ s⁻¹
Ki [3]: 16 mM
kinact [4]: 0.02 min⁻¹
